Patent US20250186405A1, “Compound For Use In Treating Narcolepsy” (Alkermes, Inc., priority 2023, published 2025)
Like-named read-outs stand apart in the source and are kept apart here.

Tests used:
[1] = test system: non-sleep deprived healthy volunteers; assay: Part 1 SAD: quantitative EEG (beta band power) and KSS biomarkers; type: in vivo, human; conditions: single doses, resting wakeful state
Protocol: On Day −1, approximately 25 hours prior to study drug administration (on Day 1), baseline assessments for qEEG began and were collected for approximately 12 hours.
At time points within Part 1 of the study, qEEG assessment was performed. The subject remained still in a seated or supine position during the EEG acquisition time points. Each EEG acquisition continued for a total of 10 minutes: initial 5 minutes with eyes closed followed by 5 minutes with eyes open looking at a fixation point.
The PD parameters in the SAD evaluation (e.g., changes from baseline in QTcF, power of qEEG frequency bands, KSS) were summarized using descriptive statistics for each time point by dose level.
As discussed above in Example sections 4.10.3.2, 4.13.4, and 4.15.1, pharmacodynamic parameters in the SAD evaluation (e.g., changes from baseline in QTcF, power of qEEG frequency bands, KSS) were measured in non-sleep deprived healthy volunteers. […] The dots indicate the average post-dose measurements at each timepoint and the shaded areas show the confidence intervals. The data points representing Compound A cluster in the area associated with both higher beta power and increased alertness relative to placebo, with little overlap between the two groups.

[2] = Part 1 SAD: plasma pharmacokinetics after single oral dose; type: in vivo, human; conditions: for CL/F / AUC(0-t) / Cmax / AUC(0-inf) / half-life / Vd/F / concentration at 8 h: geometric mean; for AUC(0-t) / Cmax / AUC(0-inf) / half-life / Vd/F / concentration at 8 h / Tmax: human, plasma; for Vd/F: read-out: Vz/F; for concentration at 8 h: read-out: C8 (concentration at 8-hour post dose)
Protocol: There were approximately 8 subjects per cohort. Dose levels were as follows:
Blood samples (up to 5 mL per sample) were collected for PK analysis of Compound A and its metabolite(s). The actual time of sample collection was recorded. The PK samples of the subjects randomized to placebo treatment were not analyzed. Any remaining plasma PK samples were used to explore the presence of any additional metabolites and/or biomarkers.
Plasma and urine concentrations of Compound A and its metabolite(s) were measured using a validated high-performance liquid chromatography with tandem mass spectrometry.
The plasma PK parameters of Compound A and its metabolite(s) were determined from the plasma concentration-time profiles for all evaluable subjects. Actual sampling times, rather than scheduled sampling times, were used in all computations involving sampling times. The below lower limit of quantitation concentrations were set to zero prior to PK parameter estimation.
The PK population was used for summaries of plasma Compound A and its metabolite(s) concentrations and for analyses, summaries, and listing of PK parameters. Dose proportionality for Cmax, AUC0-t, and AUC0-∞ was evaluated using a linear model of logarithmically transformed values to assess the slope parameter, and the 95% CI for the slope was estimated. Where the 95% CI of the slope includes 1, it was considered as evidence of dose proportionality for that PK parameter.

[3] = 1 mg single dose (low end of 1 to 50 mg)
[4] = 50 mg single dose (high end of 1 to 50 mg)

SMILES: CS(=O)(=O)N[C@H]1CCCN2C(=O)COc3ccccc3C3CCC(CC3)OCC12 (stereo partly drawn) [Compound A, N-[(4S,4aR,7α,10α)-1,2,3,4,4a,5,7,8,9,10,16,17-dodecahydro-17-oxo-7,10-ethanopyrido[1,2-d][1,7,4]benzodioxaazacyclotridecin-4-yl]methanesulfonamide]
- qEEG beta band signal, change from baseline [1]: Dose-dependent increases in beta band signal were observed
- geometric mean AUC0-inf/D [2, 3]: 11.6
- geometric mean Cmax/D [2, 3]: 3.2
- CL/F ([2]; 1 mg single dose, N = 5): 86.0 L/h
- CL/F ([2]; 3 mg single dose, N = 3): 95.6 L/h
- CL/F ([2]; 8 mg single dose, N = 4): 96.4 L/h
- CL/F ([2]; 15 mg single dose, N = 5): 89.8 L/h
- CL/F ([2]; 25 mg single dose): 91.1 L/h
- geometric mean AUC0-inf/D [2, 4]: 10.1
- geometric mean Cmax/D [2, 4]: 0.59
- CL/F ([2]; 50 mg single dose, N = 2): 99.3 L/h
- AUC(0-t) ([2]; oral, 1 mg single dose): 12.3 ng·h/mL
- Cmax ([2]; oral, 1 mg single dose): 3.23 ng/mL
- AUC(0-inf) ([2]; oral, 1 mg single dose, N = 5): 11.6 ng·h/mL
- half-life ([2]; oral, 1 mg single dose, N = 5): 2.79 h
- Vd/F ([2]; oral, 1 mg single dose, N = 5): 346 L
- concentration at 8 h ([2]; oral, 1 mg single dose): 0.337 ng/mL
- Tmax ([2]; oral, 1 mg single dose, median, read-out: Tmax): 1.5 h
- AUC(0-t) ([2]; oral, 3 mg single dose): 36.6 ng·h/mL
- Cmax ([2]; oral, 3 mg single dose): 6.15 ng/mL
- AUC(0-inf) ([2]; oral, 3 mg single dose, N = 3): 31.4 ng·h/mL
- half-life ([2]; oral, 3 mg single dose, N = 3): 2.31 h
- Vd/F ([2]; oral, 3 mg single dose, N = 3): 318 L
- concentration at 8 h ([2]; oral, 3 mg single dose): 1.24 ng/mL
- Tmax ([2]; oral, 3 mg single dose, median, read-out: Tmax): 1.5 h
- AUC(0-t) ([2]; oral, 8 mg single dose): 81.3 ng·h/mL
- Cmax ([2]; oral, 8 mg single dose): 11.5 ng/mL
- AUC(0-inf) ([2]; oral, 8 mg single dose, N = 4): 83 ng·h/mL
- half-life ([2]; oral, 8 mg single dose, N = 4): 16 h
- Vd/F ([2]; oral, 8 mg single dose, N = 4): 2220 L
- concentration at 8 h ([2]; oral, 8 mg single dose): 2.47 ng/mL
- Tmax ([2]; oral, 8 mg single dose, median, read-out: Tmax): 2 h
- AUC(0-t) ([2]; oral, 15 mg single dose): 165 ng·h/mL
- Cmax ([2]; oral, 15 mg single dose): 22.1 ng/mL
- AUC(0-inf) ([2]; oral, 15 mg single dose, N = 5): 167 ng·h/mL
- half-life ([2]; oral, 15 mg single dose, N = 5): 10.1 h
- Vd/F ([2]; oral, 15 mg single dose, N = 5): 1300 L
- concentration at 8 h ([2]; oral, 15 mg single dose): 4.07 ng/mL
- Tmax ([2]; oral, 15 mg single dose, median, read-out: Tmax): 2.5 h
- AUC(0-inf) ([2]; oral, 25 mg single dose): 274 ng·h/mL
- AUC(0-t) ([2]; oral, 25 mg single dose): 241 ng·h/mL
- Cmax ([2]; oral, 25 mg single dose): 23.1 ng/mL
- half-life ([2]; oral, 25 mg single dose): 12.5 h
- concentration at 8 h ([2]; oral, 25 mg single dose): 5.7 ng/mL
- Vd/F ([2]; oral, 25 mg single dose): 1650 L
- Tmax ([2]; oral, 25 mg single dose, median, read-out: Tmax): 1 h
- AUC(0-t) ([2]; oral, 50 mg single dose): 357 ng·h/mL
- Cmax ([2]; oral, 50 mg single dose): 29.3 ng/mL
- AUC(0-inf) ([2]; oral, 50 mg single dose, N = 2): 503 ng·h/mL
- half-life ([2]; oral, 50 mg single dose, N = 2): 7.34 h
- Vd/F ([2]; oral, 50 mg single dose, N = 2): 1050 L
- concentration at 8 h ([2]; oral, 50 mg single dose): 7.83 ng/mL
- Tmax ([2]; oral, 50 mg single dose, median, read-out: Tmax): 2 h
- Tmax ([2]; single oral doses 1 to 50 mg, fasted subjects, read-out: median Tmax, range across doses): 1 to 2.5 h
- fold change in geometric mean AUC (AUClast) for 50-fold change in dose ([2]; single doses 1 to 50 mg): 29 fold
- fold change in geometric mean Cmax for 50-fold change in dose ([2]; single doses 1 to 50 mg): 9 fold
